Experimental data from PMC5931475, “Deciphering the molecular determinants of cholinergic anthelmintic sensitivity in nematodes: When novel functional validation approaches highlight major differences between the model Caenorhabditis elegans and parasitic species” (PLoS Pathogens, 2018).

How the values were obtained:
[1] = molecular target: T1, composite Cel-L-AChR with Dim-ACR-8 (29/38/63/L1 + Dim-ACR-8); experiment: two-electrode voltage clamp, Xenopus oocytes; format: cell-based, Caenorhabditis elegans; Dirofilaria immitis; details: read-out: Lev EC50; agonist; responses normalized to 100 μM ACh
T1 construct: mixed-species complex of whole subunits; cRNA in Xenopus laevis oocytes with C. elegans RIC-3, UNC-50, UNC-74; LEV-8 replaced by D. immitis ACR-8
T1 sequence (A0A2I6TEL0 22-518): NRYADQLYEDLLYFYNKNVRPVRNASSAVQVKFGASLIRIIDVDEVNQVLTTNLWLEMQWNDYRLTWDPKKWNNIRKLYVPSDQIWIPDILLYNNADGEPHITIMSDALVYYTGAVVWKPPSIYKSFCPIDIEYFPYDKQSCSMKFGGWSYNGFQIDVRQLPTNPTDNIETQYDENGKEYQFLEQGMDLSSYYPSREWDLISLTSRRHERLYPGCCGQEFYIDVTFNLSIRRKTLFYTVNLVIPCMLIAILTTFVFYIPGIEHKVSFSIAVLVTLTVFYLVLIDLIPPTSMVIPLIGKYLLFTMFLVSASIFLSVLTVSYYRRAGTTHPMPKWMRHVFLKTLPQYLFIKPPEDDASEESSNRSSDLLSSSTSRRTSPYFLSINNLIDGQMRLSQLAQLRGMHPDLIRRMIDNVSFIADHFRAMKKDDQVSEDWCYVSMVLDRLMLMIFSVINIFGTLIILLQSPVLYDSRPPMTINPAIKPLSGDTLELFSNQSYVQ
T1 sequence (Q23022 17-511, further chain): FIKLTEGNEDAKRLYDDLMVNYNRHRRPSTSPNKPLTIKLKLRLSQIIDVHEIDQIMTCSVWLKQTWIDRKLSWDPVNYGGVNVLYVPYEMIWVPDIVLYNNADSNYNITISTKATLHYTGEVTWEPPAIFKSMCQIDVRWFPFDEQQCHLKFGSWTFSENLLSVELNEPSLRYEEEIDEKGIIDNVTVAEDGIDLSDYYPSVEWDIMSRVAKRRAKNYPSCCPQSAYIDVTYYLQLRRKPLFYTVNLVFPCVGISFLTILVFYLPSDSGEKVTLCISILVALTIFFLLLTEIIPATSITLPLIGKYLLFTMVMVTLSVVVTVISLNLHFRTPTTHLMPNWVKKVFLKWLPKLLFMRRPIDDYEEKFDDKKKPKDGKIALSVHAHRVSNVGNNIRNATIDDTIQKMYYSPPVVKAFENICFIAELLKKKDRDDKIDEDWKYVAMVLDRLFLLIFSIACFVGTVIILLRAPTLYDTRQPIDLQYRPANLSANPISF
T1 sequence (Q9N587 24-502, further chain): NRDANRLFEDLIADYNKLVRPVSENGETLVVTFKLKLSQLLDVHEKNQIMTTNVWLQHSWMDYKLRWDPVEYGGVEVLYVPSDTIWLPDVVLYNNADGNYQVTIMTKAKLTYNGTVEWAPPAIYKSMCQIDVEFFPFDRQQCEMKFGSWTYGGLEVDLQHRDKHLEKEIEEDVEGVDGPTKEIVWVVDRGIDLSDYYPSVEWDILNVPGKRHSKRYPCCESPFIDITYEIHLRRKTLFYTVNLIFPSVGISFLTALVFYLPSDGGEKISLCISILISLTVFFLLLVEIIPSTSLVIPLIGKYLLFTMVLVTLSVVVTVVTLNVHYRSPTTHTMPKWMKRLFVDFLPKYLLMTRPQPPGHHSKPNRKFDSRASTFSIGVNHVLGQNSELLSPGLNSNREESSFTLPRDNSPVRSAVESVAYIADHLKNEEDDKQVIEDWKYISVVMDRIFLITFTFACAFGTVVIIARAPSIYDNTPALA
T1 sequence (P48181 27-493, further chain): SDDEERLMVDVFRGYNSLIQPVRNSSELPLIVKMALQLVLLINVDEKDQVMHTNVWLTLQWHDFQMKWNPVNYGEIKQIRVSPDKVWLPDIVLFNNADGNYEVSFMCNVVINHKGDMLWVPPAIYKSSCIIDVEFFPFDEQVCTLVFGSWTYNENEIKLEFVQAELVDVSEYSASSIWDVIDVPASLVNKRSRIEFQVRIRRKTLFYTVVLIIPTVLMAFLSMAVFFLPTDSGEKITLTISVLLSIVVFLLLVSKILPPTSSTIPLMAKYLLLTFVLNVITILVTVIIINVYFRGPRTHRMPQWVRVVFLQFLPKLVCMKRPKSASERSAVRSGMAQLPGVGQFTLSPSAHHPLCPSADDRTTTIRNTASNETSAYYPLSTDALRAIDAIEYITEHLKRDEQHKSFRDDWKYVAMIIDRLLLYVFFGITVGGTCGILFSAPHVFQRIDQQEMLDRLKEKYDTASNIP
T1 sequence (Q27218 32-507, further chain): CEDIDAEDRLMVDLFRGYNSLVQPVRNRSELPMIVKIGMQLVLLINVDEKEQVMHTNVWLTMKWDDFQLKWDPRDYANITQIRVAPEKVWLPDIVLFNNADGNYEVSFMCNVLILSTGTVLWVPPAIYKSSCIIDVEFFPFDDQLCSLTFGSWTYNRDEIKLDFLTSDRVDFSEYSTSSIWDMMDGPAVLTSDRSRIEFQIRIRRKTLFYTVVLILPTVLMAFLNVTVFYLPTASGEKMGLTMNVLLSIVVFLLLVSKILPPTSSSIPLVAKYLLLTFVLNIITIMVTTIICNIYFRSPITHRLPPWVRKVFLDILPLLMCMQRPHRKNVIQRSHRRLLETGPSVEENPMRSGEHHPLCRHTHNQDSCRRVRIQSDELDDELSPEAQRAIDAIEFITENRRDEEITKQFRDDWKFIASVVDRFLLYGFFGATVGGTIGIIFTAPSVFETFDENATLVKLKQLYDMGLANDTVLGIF

[2] = system: T1, composite Cel-L-AChR with Dim-ACR-8 (29/38/63/L1 + Dim-ACR-8); set-up: species or system Xenopus laevis oocytes; Agonist-evoked currents in cRNA-injected oocytes, concentration-response normalized to 100 uM ACh; details: Imax as % of 100 uM ACh response; agonist

## c1ccc([C@H]2CN3CCSC3=N2)cc1 [levamisole]
[1]
  EC50: 5.9 ± 1.3 µM
[2]
  Lev Imax: 29.0 ±1.2%
